Measurements reported in US20260206809A1, “NATURAL SWEETENER COMPOSITIONS CONTAINING ALKYL LACTATES AND USES THEREOF” (Firmenich SA, priority 2022, published 2026).

Experiment: Solubility limit of the natural sweetener in pure solvents (estimated)
Format: physicochemical
Conditions: for Solubility limit in ethyl lactate: pure ethyl lactate; for Solubility limit in glycerol: pure glycerol
Experimental: As used herein, “solubility at 25° C.” or “solubility at RT” is meant to represent the thermodynamic, equilibrium solubility of a natural sweetener at 25° C. or at RT. […] Subsequently, even once the temperature is brought back to a lower temperature, for example to 25° C., the solid compound may remain in solution for a certain amount of time while being supersaturated. However, this is an apparent solubility due to a non-equilibrium, metastable state with limited shelf-life stability, and therefore is distinguished from thermodynamic solubility at equilibrium. Thermodynamic solubility can, for example, be determined with the so-called shake flask method at a controlled temperature. Alternatively, it can be determined by slowly heating the compound and recording the solubilization temperature after complete dissolution.

Compound	Solubility limit in ethyl lactate [%]	Solubility limit in glycerol
Rebaudioside B [Reb B (95%)]	< 1	about 16 % wt.
C=C1C[C@@]23CC[C@H]4[C@@](C)(CCC[C@@]4(C)C(=O)O[C@@H]4O[C@H](CO)[C@@H](O)[C@H](O[C@@H]5O[C@H](CO)[C@@H](O)[C@H](O)[C@H]5O)[C@H]4O[C@@H]4O[C@H](CO)[C@@H](O)[C@H](O)[C@H]4O)[C@@H]2CC[C@]1(O[C@@H]1O[C@H](CO)[C@@H](O)[C@H](O[C@@H]2O[C@H](CO)[C@@H](O)[C@H](O)[C@H]2O)[C@H]1O[C@@H]1O[C@H](CO)[C@@H](O)[C@H](O)[C@H]1O)C3 [Reb M (95%), Rebaudioside M]	< 0.7	about 9 % wt.
C=C1C[C@@]23CC[C@H]4[C@@](C)(CCC[C@@]4(C)C(=O)O[C@@H]4O[C@H](CO)[C@@H](O)[C@H](O)[C@H]4O)[C@@H]2CC[C@]1(O[C@@H]1O[C@H](CO)[C@@H](O)[C@H](O[C@@H]2O[C@H](CO)[C@@H](O)[C@H](O)[C@H]2O)[C@H]1O[C@@H]1O[C@H](CO)[C@@H](O)[C@H](O)[C@H]1O)C3 [Reb A (99.5%), Rebaudioside A]	< 0.3	about 2 % wt.
